# Assay results taken from patent US8242152B2, “Use of 4-[(4-thiazolyl)phenoxy]alkoxy-benzamidine derivatives for the prophylaxis and treatment of osteoporosis” (Dong Wha Pharmaceutical Co., Ltd., priority 2001, dated 2012).
# Key:
# [1] = test system: osteoclast activity (resorption pits); assay: Bone resorption pit formation assay on dentine slice (Example 5); format: cell-based, mice; details: for inhibition at 0.01 µM / inhibition at 0.1 µM / inhibition at 1 µM: Mus musculus, Osteoclast, dentine slice, 24 h, read-out: Inhibitory activity (%)
# Method: Method for evaluating the effects of the compounds on osteoclast activity: Multinucleated osteoclasts were developed on collagen gel plates by co-culture system as described. On day 6-8 of the co-culture, multinucleated OCLs were detached from plates by 0.2% collagenase treatment (“crude OCLs”). Crude OCLs suspended in α-MEM containing 10% FBS were placed on a dentine slice (4 mm diameter) in a 96-well culture plate. […] At the end of the incubation, cells were removed by 1 M NH4OH treatment and resorption pits formed (in the slices stained with Mayer's hematoxylin). Resorption pits were enumerated with an image analyzer and compared to the control group.
# osteoclast fusion [2] = assay: Fusion assay of prefusion osteoclasts (Example 2); format: cell-based, mice; details: Mus musculus, Osteoclast, 24 hrs; for inhibition at 0.08 µM / inhibition at 0.4 µM / inhibition at 2 µM / inhibition at 10 µM: read-out: Inhibitory action (%)
# From the text: This assay is designed to evaluate the influences of each test substance in terms of osteoclast fusion during the differentiation process in which immature prefusion osteoclasts (pOC; osteoclast structure with one more nuclei) were transformed into mature multinucleated osteoclast (OCL) via cell to cell fusion (Gregg Wesolowski et al. Experimental Cell Research 219,679-686, 1995).
# The prefusion osteoclast can be obtained via co-culture of both bone marrow cells and osteoblast, as prepared from Example 1. The mixture of both osteoblast (about 5×10^5 cells/plate) and bone marrow cells (about 1×10^7 cells/plate) were co-cultured in a 100 mm culture dish. Some differentiation factors, such as dexamethasone (10^−6M) and vitamin D3 (10^−9M), were added to the medium from the first day of culture. The medium was changed with a fresh medium containing differentiation factors every 2 days.
# Since a great number of the prefusion osteoclasts having one or more nuclei in fusion process were formed during 4-day co-culture, the cells were separated and co-cultivation after 4 days. The medium was removed from the cells and with the addition of 0.2% collagenase solution (4 mL), the cells were incubated at 37° C. for 20 mins to separate the attachment cells. Since the majority of separated cells were osteoblasts, all osteoblasts were washed with PBS solution two or three times for their complete removal.
# After the remaining prefusion osteoclasts were separated via reaction for 20 mins with the addition of echistatin containing 10% BSA, the cells were harvested by centrifuge.
# The test substances diluted at each concentration were diluted at the desired concentration in α-MEM medium (addition of 10% FBS) to load them into a 96-well microplate in a dose of 100 uL per well. The osteoclastic monocytes, so separated from the preceding No. 1, were plated on a 96-well microplate in a dose of 5×10^3 cell/100 uL per well and cultured at 37° C. for 24 hrs, thus successfully resulting in the osteoclast fusion. In the case of specimen-free and positive controls, experiments were performed in the same manner as above.
# The medium was removed from the cells and then the cells were washed once with PBS and fixed to a PBS solution containing 10% formalin for about 5 mins. The cells were again fixed to both ethanol and acetone (1/1) in a mixing solution for about 5 mins and dried off. The cells were further treated by TRAP staining solution for 15 mins and washed with water to observe the cells under the microscope. The TRAP-positive osteoclast counts, which were differentiated from monocyte to multinucleated cells (osteoclast having more than 10 nuclei) via fusion process, were measured.
# [3] = test system: osteoclast differentiation; assay: Osteoclast differentiation, co-culture, TRAP(+)MNCs (Example 5); format: cell-based, mice; details: for inhibition at 0.01 µM / inhibition at 0.1 µM / inhibition at 1 µM: Mus musculus, Osteoclast, 144 h, day 6, read-out: % inhibitory action
# Method: To investigate the effect of compounds on osteoclast differentiation, co-culture between bone marrow cells (2.5×10^5 cells/cm^2) and calvaria-derived osteoblastic cells (4×10^4 cells/cm^2) was conducted in the presence of 1.25(OH)2D3(10^−8 M) and dexamethasone (10^−7 M) with α-MEM containing 10% FBS (referred as “osteoclastic medium”). Bone marrow cells were isolated from the femora of 6-week-old ddY mice and primary osteoblastic cells were isolated from the calvariae of newborn ICR mice by sequential digestion with 0.2% collagenase. The medium was changed every two days with fresh osteoclastic medium. An index of osteoclast formation was determined by counting TRAP-positive multinucleated osteoclasts (TRAP(+)MNCs). On day 6, the cells were fixed with 10% formaldehyde and stained for TRAP. The number of TRAP(+) MNCs containing more than 6-7 nuclei was counted under a microscope (ZEISS Axiovert 25, Switzerland). The results are shown as the relative inhibitory activity (% inhibition) compared to the control group.
# [4] = test system: Primary osteoblastic cells; assay: ALP activity in primary osteoblastic cells (Example 5); format: cell-based, ICR mice; details: 3 days
# Method: Primary osteoblastic cells isolated from the calvariae of newborn ICR mice were grown to confluence in α-MEM containing 10% FBS. These cells were plated at a density of 1×10^5/ml in tissue culture dishes. After 24 h, cells were changed with a differentiation medium containing ascorbic acid (50 ug/ml) and β-glycerophosphate (10 mM) with or without the compounds and further cultured for 3 days. Cells were washed twice with PBS and harvested. For the measurement of ALP activity and total protein content, cells were extracted into 0.1% Triton X-100 in PBS containing 1 mM MgCl2 and centrifuged at 1.000×g for 5 minutes. Enzyme activity was determined in supernatants by colorimetric procedure using p-nitrophenyl phosphate (PNP) as a substrate at a wavelength of 405 nm and the protein content was determined by a Bio-Rad protein assay kit. The ALP unit was expressed as nmol PNP/ug protein/min.
# osteoclast fusion [5] = assay: Osteoclast fusion assay with purified prefusion osteoclasts (Example 5); format: cell-based, mice; details: for inhibition at 0.08 µM / inhibition at 0.4 µM / inhibition at 2 µM / inhibition at 10 µM: read-out: Inhibitory action (%)
# Method: The effect of the compounds on the fusion of osteoclasts was examined using purified prefusion osteoclasts (pOC, mononuclear and binuclear osteoclasts). Co-cultures of bone marrow cells (2×10^7 cells/dish) and newborn mice calvariae (1×10^6 cells/dish) were maintained in 100-mm-diameter dishes for 4 days with osteoclast differontiarion factor. Cultures were washed twice with PBS and treated with 0.1% collagenase/dispase at 37° C. for 20 minutes. Released cells, mostly osteoblasts, were removed with a pipet and the plates were washed three times with PBS. The remaining cells were incubated with 30 uM echistatin in α-MEM containing 1% BSA for 20 min at 37° C. These cells were collected, pelleted, and washed once with α-MEM containing 10% FBS. The cells released by this treatment were the subject of the fusion assay. More than 90% of the cells in the pOCs preparation used in the present study were positive for TRAP.
# pOCs (15,000 cells/well) were plated on 96 well culture plates with or without various compounds. After culture for 18 hours, the cells were fixed and stained for TRAP.
# [6] = Mus musculus, Osteoclast, 18 hours
Compound,inhibition at 0.01 µM [1] [%],inhibition at 0.1 µM [1] [%],inhibition at 1 µM [1] [%],inhibition at 0.08 µM (osteoclast fusion [2]) [%],inhibition at 0.4 µM (osteoclast fusion [2]) [%],inhibition at 2 µM (osteoclast fusion [2]) [%],inhibition at 10 µM (osteoclast fusion [2]) [%],inhibition at 0.01 µM [3] [%],inhibition at 0.1 µM [3] [%],inhibition at 1 µM [3] [%],ALP activity (% of control) ([4]; 0.01 uM),ALP activity (Unit) ([4]; 0.01 uM) [nmol PNP/ug protein/min],ALP activity (% of control) ([4]; 0.1 uM),ALP activity (Unit) ([4]; 0.1 uM) [nmol PNP/ug protein/min],inhibition at 0.08 µM (osteoclast fusion [5]; [6]) [%],inhibition at 0.4 µM (osteoclast fusion [5]; [6]) [%],inhibition at 2 µM (osteoclast fusion [5]; [6]) [%],inhibition at 10 µM (osteoclast fusion [5]; [6]) [%],other results
"Cc1nc(-c2ccc(OCCCCCOc3ccc(C(=N)N)cc3)cc2)c(C(C)C)s1 [DW1352, 4-{5-[4-(5-isopropyl-2-methyl-1,3-thiazol-4-yl)phenoxy]pentoxy}-benzamidine]",21.7,36,64.1,5.13,24.7,87.2,99,27.1,41.3,80.9,113.0 % of control,19.2,111.7 % of control,19.1,5.13,24.7,87.2,99,"times more inhibition of osteoclast activity than DW1351 ([1]; versus DW1351, Table 10): about 1.35 times; IC50 (osteoclast fusion [2]): 0.74 µM; times stronger inhibition of osteoclast differentiation than DW1351 ([3]; versus DW1351, Table 8): about 1.35 times; IC50 (osteoclast fusion [5]; [6]): 0.74 µM; times more inhibition of osteoclast fusion than DW1351 (osteoclast fusion [5]; versus DW1351): 2.3 times"
"COc1cc(C(=O)N(C(C)C)C(C)C)ccc1OCCCCOc1ccc2c(N)noc2c1 [HS1141, N,N-diisopropyl-4-[4-(3-aminobenzo[d]isooxazole-6-yloxy)butoxy]-3-methoxybenzamide]",8.2,22.7,52.7,2.1,12.3,15.7,36.3,11.4,36.4,72.9,117.3 % of control,19.9,120.9 % of control,21.0,2.1,12.3,15.7,36.3,–
